Assays:
[1] = target: T1, hTHEM4 (Homo sapiens, UniProt Q5T1C6); assay: product inhibition of thioesterase activity; assay type: biochemical
[2] = target: T1, hTHEM4; assay: substrate hydrolysed in the competitive inhibition assay; assay type: biochemical

T1 sequence (Q5T1C6 37-240): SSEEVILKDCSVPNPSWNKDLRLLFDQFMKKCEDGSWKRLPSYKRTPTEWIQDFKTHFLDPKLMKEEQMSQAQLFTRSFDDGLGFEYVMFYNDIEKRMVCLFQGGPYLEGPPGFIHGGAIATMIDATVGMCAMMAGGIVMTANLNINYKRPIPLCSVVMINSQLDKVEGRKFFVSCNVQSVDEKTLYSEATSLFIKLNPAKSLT

Ki [1] | Structure (SMILES) | substrate hydrolysed in the competitive inhibition assay [2]
81 ± 1 µM | CC(C)(COP(=O)(O)OP(=O)(O)OC[C@H]1O[C@@H](n2cnc3c(N)ncnc32)[C@H](O)[C@@H]1OP(=O)(O)O)[C@@H](O)C(=O)NCCC(=O)NCCS [CoA] | –
– | CCCCCCCCCC(=O)SCCNC(=O)CCNC(=O)[C@H](O)C(C)(C)COP(=O)(O)OP(=O)(O)OC[C@H]1O[C@@H](n2cnc3c(N)ncnc32)[C@H](O)[C@@H]1OP(=O)(O)O [decanoyl-CoA] | competitive inhibitor of hTHEM4-catalyzed decanoyl-CoA hydrolysis

From article PMC4066673 (Biochemistry, 2012)
